{"source": "patent US7723358B2", "about": "“Aroyl-O-piperidine derivatives for the treatment of diabetes-related problems” (Merck Patent GmbH, priority 2004, dated 2010)", "data": [{"target": "T1, microsomal triglyceride transfer protein (MTP) (Mesocricetus auratus, UniProt P55158)", "T1 construct": "The supernatant comprising the soluble MTP is dialysed against Tris/HCl 150 mM; from tissue; host or cells: golden hamster liver microsomes, deoxycholate-solubilised supernatant, dialysed", "T1 sequence (P55158 19-895)": "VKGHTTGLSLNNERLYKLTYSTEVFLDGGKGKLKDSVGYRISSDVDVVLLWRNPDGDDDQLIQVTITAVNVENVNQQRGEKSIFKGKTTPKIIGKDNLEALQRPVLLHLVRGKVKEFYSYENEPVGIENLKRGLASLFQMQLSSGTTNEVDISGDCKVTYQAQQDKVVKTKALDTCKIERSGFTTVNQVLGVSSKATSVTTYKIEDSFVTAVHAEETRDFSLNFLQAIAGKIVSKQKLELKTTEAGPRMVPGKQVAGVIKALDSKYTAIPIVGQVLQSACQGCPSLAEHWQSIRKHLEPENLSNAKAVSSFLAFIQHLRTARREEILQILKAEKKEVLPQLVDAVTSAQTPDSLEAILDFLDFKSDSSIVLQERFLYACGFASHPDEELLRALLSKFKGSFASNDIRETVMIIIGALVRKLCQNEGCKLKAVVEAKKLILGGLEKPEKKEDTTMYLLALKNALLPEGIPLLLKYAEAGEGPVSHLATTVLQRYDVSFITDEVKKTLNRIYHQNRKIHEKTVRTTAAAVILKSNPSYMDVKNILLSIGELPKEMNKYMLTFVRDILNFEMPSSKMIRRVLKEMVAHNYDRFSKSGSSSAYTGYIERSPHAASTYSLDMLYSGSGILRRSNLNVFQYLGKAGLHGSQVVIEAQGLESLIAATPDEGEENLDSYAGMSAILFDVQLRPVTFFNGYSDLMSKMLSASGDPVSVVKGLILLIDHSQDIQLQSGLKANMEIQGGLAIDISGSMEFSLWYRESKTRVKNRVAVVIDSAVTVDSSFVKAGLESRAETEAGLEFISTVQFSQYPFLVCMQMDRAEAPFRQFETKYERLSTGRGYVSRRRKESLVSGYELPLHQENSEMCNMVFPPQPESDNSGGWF", "experiment": "Inhibition of MTP activity: transfer of [3H]-triolein from donor liposomes to biotinylated LDL, SPA", "type": "biochemical", "conditions": "MTP from golden hamster liver; incubation 18-24 hours at 37° C.; read-out: IC50, concentration that allows a 50% inhibition of MTP", "method": "Analysis of the Inhibition of MTP Activity\nThe inhibition of the activity of microsomal triglyceride transfer protein (MTP) was tested by using the following operating protocol.\nThe inhibition of MTP activity with a compound can be quantified by observing the inhibition of the transfer of a labelled triglyceride, from a donor particle to an acceptor particle, in the presence of MTP. The procedure for the preparation of MTP is based on the method by Wetterau and Zilversmit (Biochem. Biophys. Acta (1986) 875, 610). A few grams of golden hamster liver are taken and then rinsed several times in a 250 mM sucrose solution at 0° C. All the following steps proceed at +4° C. A homogenate at a concentration of 50% in 250 mM sucrose is prepared using a Teflon mill and then centrifuged for 10 minutes at 10 000×g at +4° C. The supernatant is then centrifuged at 105 000×g for 75 minutes at +4° C. The supernatant is discarded and the microsomal pellet is taken up in 3 ml (per g of starting liver) of Tris/HCl 150 mM pH 8.0. 1-ml aliquot fractions are stored at −80° C. until the time of use.\nAfter thawing a fraction of microsomes (1 ml), 12 ml of refrigerated Tris/HCl 50 mM, KCl 50 mM, MgCl2 5 mM pH 7.4 buffers and 1.2 ml of deoxycholate (0.54% in water) are added. After incubation for 30 minutes at +4° C. with gentle agitation, the suspension is centrifuged at 105 000×g for 75 minutes. The supernatant comprising the soluble MTP is dialysed against Tris/HCl 150 mM, NaCl 40 mM, EDTA 1 mM, 0.02% sodium azide pH 7.4 buffer (5 times one litre over 2-3 days). The MTP is stored at +4° C., is stable for at least 30 days and is used in unmodified form in the test.\nThe donor particles (liposomes) are prepared from 208 μl of L-phosphatidylcholine at a concentration of 10 mg/ml in chloroform, and 480 μl of [3H]-triolein at a concentration of 0.5 mCi/ml in toluene. After stirring, the solution is evaporated under nitrogen, taken up in 6 ml of Tris/HCl 50 mM, KCl 50 mM, MgCl2 5 mM pH 7.4 buffer and incubated in an ultrasound bath for 30 minutes at room temperature. The liposomes are stored at +4° C. and sonicated again for 10 minutes before each use.\nThe acceptor particles are biotinylated low density lipoproteins (LDL-biot). These particles are supplied by the company Amersham.\nThe reaction mixture is prepared in untreated ½ well white plates (Corning Costar) by addition, in the following order, of: 5 μl of HEPES 50 mM, NaCl 150 mM, BSA 0.1% (w/v), 0.05% sodium azide (w/v), pH 7.4 buffer; 5 μl of liposome; 5 μl of LDL-biot; 5 μl of test products in DMSO; 5 μl of MTP. After incubation for 18-24 hours at 37° C., the reaction is stopped by adding 100 μl of Amersham SPA (Scintillation Proximity Assay) beads coupled to streptavidin, and the radioactivity is counted using a Top Count (Packard) machine at least one hour later. The inhibition of the transfer of the triglycerides with a compound is reflected by a reduction in the transferred radioactivity.\nThe results are expressed in terms of the IC50, i.e. the concentration that allows a 50% inhibition of MTP.", "units": {"IC50": "nM"}, "values": [{"smiles": "COC(=O)[C@@H](NC(=O)N1CCC(Oc2cccc(NC(=O)c3cccc(C)c3-c3ccc(OC(F)(F)F)cc3)c2)CC1)C(C)C", "note": "[Example 49, methyl N-[[4-[3-[[[6-methyl-4′-(trifluoro-methoxy)[1,1′-biphenyl]-2-yl]carbonyl]-amino]phenoxy]-1-piperidinyl]carbonyl]-L-valinate]", "IC50": 551}, {"smiles": "Cc1cccc(C(=O)Nc2cccc(OC3CCN(Cc4ccc(N(C)C)cc4)CC3)c2)c1-c1ccc(OC(F)(F)F)cc1", "note": "[Example 84, N-[3-[[1-[[4-(dimethylamino)phenyl]-methyl]-4-piperidinyl]oxy]phenyl]-6-methyl-4′-(trifluoromethoxy)[1,1′-biphenyl]-2-carboxamide]", "IC50": 382}, {"smiles": "Cc1cccc(C(=O)Nc2cccc(OC3CCN(C(=O)Nc4ccccc4OC(F)(F)F)CC3)c2)c1-c1ccc(OC(F)(F)F)cc1", "note": "[Example 47, 4-[3-[[[6-methyl-4′-(trifluoromethoxy)[1,1′-biphenyl]-2-yl]carbonyl]amino]phenoxy]-N-(2-(trifluoromethoxy)phenyl]-1-piperi-dinecarboxamide]", "IC50": 158}, {"smiles": "COC(=O)CCC(=O)N1CCC(Oc2cccc(NC(=O)c3ccccc3-c3ccc(OC(F)(F)F)cc3)c2)CC1", "note": "[Example 133, methyl γ-oxo-4-[3-[[[4′-(trifluoromethoxy)-[1,1′-biphenyl]-2-yl]carbonyl]amino]-phenoxy]-1-piperidinebutanoate]", "IC50": 296}, {"smiles": "COc1cccc(NC(=O)N2CCC(Oc3cccc(NC(=O)c4cccc(C)c4-c4ccc(OC(F)(F)F)cc4)c3)CC2)c1", "note": "[Example 23, N-(3-methoxyphenyl)-4-[3-[[[6-methyl-4′-(trifluoromethoxy)[1,1′-biphenyl]-2-yl]-carbonyl]amino]phenoxy]-1-piperidine-carboxamide]", "IC50": 261}, {"smiles": "O=C(Nc1cccc(OC2CCN(C(=O)c3ccc([N+](=O)[O-])cc3)CC2)c1)c1ccccc1-c1ccc(OC(F)(F)F)cc1", "note": "[Example 112, N-[3-[[1-(4-nitrobenzoyl)-4-piperidinyl]-oxy]phenyl]-4′-(trifluaromethoxy)[1,1′-biphenyl]-2-carboxamide]", "IC50": 241}, {"smiles": "CCOC(=O)N1CCC(Oc2cccc(NC(=O)c3ccccc3-c3ccc(C(F)(F)F)cc3)c2)CC1", "note": "[Example 77, ethyl 4-[3-[[[4′-(trifluoromethyl)[1,1′-biphenyl]-2-yl]carbonyl]amino]phenoxy]-1-piperidinecarboxylate]", "IC50": 82.5}, {"smiles": "Cc1cccc(C(=O)Nc2cccc(OC3CCN(C(=O)NCc4ccccc4)CC3)c2)c1-c1ccc(OC(F)(F)F)cc1", "note": "[Example 35, 4-[3-[[[6-methyl-4′-(trifluoromethoxy)[1,1′-biphenyl]-2-yl]carbonyl]amino]phenoxy]-N-(phenylmethyl)-1-piperidinecarbox-amide]", "IC50": 120}, {"smiles": "COc1ccc(CC(=O)N2CCC(Oc3cccc(NC(=O)c4cccc(C)c4-c4ccc(OC(F)(F)F)cc4)c3)CC2)cc1OC", "note": "[Example 105, N-[3-[[1-[2-(3,4-dimethoxyphenyl)-acetyl]-4-piperidinyl]oxy]phenyl]-6-methyl-4′-(trifluoromethoxy)[1,1′-biphenyl]-2-carboxamide]", "IC50": 207}, {"smiles": "Cc1cccc(C(=O)Nc2cccc(OC3CCN(Cc4ccccc4)CC3)c2)c1-c1ccc(OC(F)(F)F)cc1", "note": "[Example 58, [1,1′-biphenyl]-6-methyl-N-[3-[[1-(phenyl-methyl)-4-piperidinyl]oxy]phenyl]-4′-(trifluoromethoxy)-2-carboxamide]", "IC50": 74.1}, {"smiles": "COCCOc1ccc(-c2ccccc2C(=O)Nc2cccc(OC3CCN(C(=O)OC(C)(C)C)CC3)c2)cc1", "note": "[Example 90, 1,1-dimethylethyl 4-[3-[[[4′-(2-methoxy-ethoxy)[1,1-biphenyl]-2-yl]carbonyl]-amino]phenoxy]-1-piperidinecarboxylate]", "IC50": 392}, {"smiles": "CC(=O)OCC(=O)N1CCC(Oc2cccc(NC(=O)c3ccccc3-c3ccc(OC(F)(F)F)cc3)c2)CC1", "note": "[Example 126, N-[3-[[1-[2-(acetyloxy)acetyl]-4-piperidin-yl]oxy]phenyl]-4′-(trifluoromethoxy)[1,1′-biphenyl]-2-carboxamide]", "IC50": 91.2}, {"smiles": "Cc1cccc(C(=O)Nc2cccc(OC3CCN(C(=O)NC4CCCCC4)CC3)c2)c1-c1ccc(OC(F)(F)F)cc1", "note": "[Example 34, N-cyclohexyl-4-[3-[[[6-methyl-4′-(trifluoro-methoxy)[1,1′-biphenyl]-2-yl]carbonyl]-amino]phenoxy]-1-piperidinecarboxamide]", "IC50": 296}, {"smiles": "CC(C)(C)C(=O)N1CCC(Oc2cccc(NC(=O)c3ccccc3-c3ccc(OC(F)(F)F)cc3)c2)CC1", "note": "[Example 140, N-[3-[[1-(2,2-dimethyl-1-oxopropyl)-4-piperidinyl]oxy]phenyl]-4′-(trifluorometh-oxy)[1,1′-biphenyl]-2-carboxamide]", "IC50": 176}, {"smiles": "CCOC(=O)CCC(=O)N1CCC(Oc2cccc(NC(=O)c3ccccc3-c3ccc(OC(F)(F)F)cc3)c2)CC1", "note": "[Example 139, ethyl γ-oxo-4-[3-[[[4′-(trifluoromethoxy)-[1,1′-biphenyl]-2-yl]carbonyl]amino]-phenoxy]-1-piperidinebutanoate]", "IC50": 309}, {"smiles": "CCCCNC(=O)N1CCC(Oc2cccc(NC(=O)c3cccc(C)c3-c3ccc(OC(F)(F)F)cc3)c2)CC1", "note": "[Example 33, N-butyl-4-[3-[[[6-methyl-4′-(trifluorometh-oxy)[1,1′-biphenyl]-2-yl]carbonyl]amino]-phenoxy]-1-piperidinecarboxamide]", "IC50": 114}, {"smiles": "CCOC(=O)c1ccc(NC(=O)N2CCC(Oc3cccc(NC(=O)c4cccc(C)c4-c4ccc(OC(F)(F)F)cc4)c3)CC2)cc1", "note": "[Example 27, ethyl 4-[[[4-[3-[[[6-methyl-4′-(trifluorometh-oxy)[1,1′-biphenyl]-2-yl]carbonyl]amino]-phenoxy]-1-piperidinyl]carbonyl]amino]-benzoate]", "IC50": 295}, {"smiles": "COc1cc(NC(=O)N2CCC(Oc3cccc(NC(=O)c4cccc(C)c4-c4ccc(OC(F)(F)F)cc4)c3)CC2)cc(OC)c1OC", "note": "[Example 38, 4-[3-[[[6-methyl-4′-(trifluoromethoxy)[1,1′-biphenyl]-2-yl]carbonyl]amino]phenoxy]-N-(3,4,5-trimethoxyphenyl)-1-piperidine-carboxamide]", "IC50": 422}, {"smiles": "CC(=O)N1CCC(Oc2cccc(NC(=O)c3cccc(C)c3-c3ccc(OC(F)(F)F)cc3)c2)CC1", "note": "[Example 4, N-[3-[(1-acetyl-4-piperidinyl)oxy]phenyl]-6-methyl-4′-(trifluoromethoxy)[1,1′-biphenyl]-2-carboxamide]", "IC50": 344}]}]}
